Laboratory results taken from ChEMBL document CHEMBL3085719, “Structure-based design and synthesis of potent benzothiazole inhibitors of interleukin-2 inducible T cell kinase (ITK)” (Bioorg Med Chem Lett, 2013).
pIC50, pKi: −log10 of the molar value. Converted amounts (≈) assume the structure as drawn.

Columns and labels:
[1] = Aqueous solubility of the compound at pH 7.4; format: physicochemical; details: buffer
[2] = target: Tyrosine-protein kinase Lck (Homo sapiens, UniProt P06239); test: Inhibition of LCK (unknown origin)
[3] = Oral bioavailability in rat at 5 mg/kg; format: ADME, organism-based; details: in vivo
[4] = target: T1, Tyrosine-protein kinase TXK (Homo sapiens) (UniProt P42681); test: Inhibition of TXK (unknown origin) at 0.1 uM relative to control
T1 sequence (whole entry): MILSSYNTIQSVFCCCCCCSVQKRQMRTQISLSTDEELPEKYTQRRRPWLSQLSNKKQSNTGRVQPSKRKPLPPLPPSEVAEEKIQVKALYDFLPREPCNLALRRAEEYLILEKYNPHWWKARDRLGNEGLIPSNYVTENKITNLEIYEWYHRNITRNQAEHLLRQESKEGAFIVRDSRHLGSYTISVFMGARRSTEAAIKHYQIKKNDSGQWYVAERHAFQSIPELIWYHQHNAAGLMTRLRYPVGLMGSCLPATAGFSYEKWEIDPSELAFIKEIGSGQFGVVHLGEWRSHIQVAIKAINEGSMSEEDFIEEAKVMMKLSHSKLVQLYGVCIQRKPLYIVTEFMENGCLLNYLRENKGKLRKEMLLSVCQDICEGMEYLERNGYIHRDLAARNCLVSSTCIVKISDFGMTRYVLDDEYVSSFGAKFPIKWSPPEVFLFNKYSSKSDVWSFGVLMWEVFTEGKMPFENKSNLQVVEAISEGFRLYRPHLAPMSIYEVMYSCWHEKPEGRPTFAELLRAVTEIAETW

[5] = Half life in rat at 5 mg/kg, po; format: ADME, organism-based; set-up: dose 5 mg/kg, route oral; details: in vivo
[6] = target: Tyrosine-protein kinase Yes (Homo sapiens) (UniProt P07947); test: Inhibition of YES (unknown origin) at 0.1 uM relative to control
[7] = target: T2, Tyrosine-protein kinase ITK/TSK (Homo sapiens, UniProt Q08881); test: Inhibition of ITK in human Jurkat cells assessed as inhibition of PLC-gamma1 phosphorylation by immuno-detection assay; format: cell-based
T2 sequence (Q08881 whole entry): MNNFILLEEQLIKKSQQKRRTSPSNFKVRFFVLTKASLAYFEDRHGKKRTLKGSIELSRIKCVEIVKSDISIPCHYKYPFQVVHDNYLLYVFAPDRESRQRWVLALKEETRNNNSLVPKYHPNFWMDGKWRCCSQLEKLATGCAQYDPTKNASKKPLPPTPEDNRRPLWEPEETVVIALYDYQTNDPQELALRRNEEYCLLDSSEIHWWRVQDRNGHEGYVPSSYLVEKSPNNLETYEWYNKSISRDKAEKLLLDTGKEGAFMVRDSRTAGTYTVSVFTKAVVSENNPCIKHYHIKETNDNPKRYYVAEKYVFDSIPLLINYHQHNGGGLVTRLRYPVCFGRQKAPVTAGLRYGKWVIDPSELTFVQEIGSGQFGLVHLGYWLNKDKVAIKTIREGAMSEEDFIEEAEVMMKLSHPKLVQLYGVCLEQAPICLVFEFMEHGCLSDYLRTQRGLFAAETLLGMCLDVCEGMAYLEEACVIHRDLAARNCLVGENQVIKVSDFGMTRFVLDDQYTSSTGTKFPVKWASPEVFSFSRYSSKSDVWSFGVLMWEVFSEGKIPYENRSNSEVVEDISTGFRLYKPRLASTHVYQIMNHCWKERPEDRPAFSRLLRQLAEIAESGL

[8] = Half life in rat at 1 mg/kg, iv; format: ADME, organism-based; set-up: dose 1 mg/kg, route intravenous; details: in vivo
[9] = target: Casein kinase I isoform alpha (Homo sapiens) (UniProt P48729); test: Inhibition of CK1alpha (unknown origin) at 0.1 uM relative to control
[10] = AUC (last) in rat at 5 mg/kg, po; format: ADME, organism-based; set-up: time 0 - last, dose 5 mg/kg, route oral; details: plasma
[11] = target: Vascular endothelial growth factor receptor 2 (Homo sapiens) (UniProt P35968); test: Inhibition of KDR (unknown origin) at 0.1 uM relative to control
[12] = AUC (last) in rat at 1 mg/kg, iv; format: ADME, organism-based; set-up: time 0 - last, dose 1 mg/kg, route intravenous; details: plasma
[13] = target: Cyclin-dependent kinase 2 (Homo sapiens) (UniProt P24941); test: Inhibition of CDK2 (unknown origin) at 0.1 uM relative to control
[14] = target: Serine/threonine-protein kinase PAK 4 (Homo sapiens) (UniProt O96013); test: Inhibition of PAK4 (unknown origin) at 0.1 uM relative to control
[15] = target: T2, Tyrosine-protein kinase ITK/TSK; test: Inhibition of full length GST-tagged ITK (unknown origin) using Ac-EFPIYDFLPAKKK-NH2 as substrate after 35 mins by LC/MS analysis
[16] = Volume of distribution at steady state in rat at 1 mg/kg, iv; format: ADME, organism-based; set-up: dose 1 mg/kg, route intravenous; details: in vivo, read-out: Vdss
[17] = target: Receptor-type tyrosine-protein kinase FLT3 (Homo sapiens) (UniProt P36888); test: Inhibition of FLT3 (unknown origin) at 0.1 uM relative to control
[18] = Lipophilicity, log D of the compound at pH 7.4; details: buffer
[19] = Clearance in rat at 1 mg/kg, iv; format: ADME, organism-based; set-up: dose 1 mg/kg, route intravenous; details: in vivo
[20] = target: Tyrosine-protein kinase ABL1 (Homo sapiens) (UniProt P00519); test: Inhibition of ABL (unknown origin) at 0.1 uM relative to control
[21] = target: Tyrosine-protein kinase ABL1 (Homo sapiens) (UniProt P00519); test: Inhibition of ABL (unknown origin) at 1 uM relative to control
[22] = tested on: RAF proto-oncogene serine/threonine-protein kinase (Homo sapiens), P04049 [Y340D,Y341D]; test: Inhibition of RAF Y340D/Y341D double mutant (unknown origin) at 1 uM relative to control
[23] = target: T3, Muscle, skeletal receptor tyrosine-protein kinase (Homo sapiens) (UniProt O15146); test: Inhibition of MUSK (unknown origin) at 1 uM relative to control
T3 sequence (whole entry): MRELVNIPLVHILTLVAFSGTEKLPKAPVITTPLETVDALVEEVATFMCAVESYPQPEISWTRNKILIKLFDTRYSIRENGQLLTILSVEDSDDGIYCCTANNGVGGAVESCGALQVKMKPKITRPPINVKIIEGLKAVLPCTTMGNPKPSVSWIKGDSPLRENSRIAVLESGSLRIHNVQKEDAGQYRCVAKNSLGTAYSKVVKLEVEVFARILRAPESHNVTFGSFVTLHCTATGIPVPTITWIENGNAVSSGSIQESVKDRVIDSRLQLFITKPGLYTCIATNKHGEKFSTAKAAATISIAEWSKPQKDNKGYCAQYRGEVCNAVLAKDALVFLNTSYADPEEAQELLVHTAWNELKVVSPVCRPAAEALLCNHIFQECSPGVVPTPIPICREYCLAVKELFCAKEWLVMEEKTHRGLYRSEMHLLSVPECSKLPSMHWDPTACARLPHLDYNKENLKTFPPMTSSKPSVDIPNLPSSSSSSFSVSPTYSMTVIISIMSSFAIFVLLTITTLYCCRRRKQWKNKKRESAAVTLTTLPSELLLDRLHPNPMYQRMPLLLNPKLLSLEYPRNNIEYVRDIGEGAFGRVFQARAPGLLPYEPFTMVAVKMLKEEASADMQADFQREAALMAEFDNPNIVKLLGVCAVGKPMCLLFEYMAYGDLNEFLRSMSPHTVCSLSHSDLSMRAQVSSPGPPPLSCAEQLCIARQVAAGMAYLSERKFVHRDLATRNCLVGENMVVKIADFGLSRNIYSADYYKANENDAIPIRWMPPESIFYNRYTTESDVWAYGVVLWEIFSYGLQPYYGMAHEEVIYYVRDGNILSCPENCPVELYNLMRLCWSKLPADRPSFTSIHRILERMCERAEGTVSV

Chain of Tyrosine-protein kinase Lck (P06239 whole entry): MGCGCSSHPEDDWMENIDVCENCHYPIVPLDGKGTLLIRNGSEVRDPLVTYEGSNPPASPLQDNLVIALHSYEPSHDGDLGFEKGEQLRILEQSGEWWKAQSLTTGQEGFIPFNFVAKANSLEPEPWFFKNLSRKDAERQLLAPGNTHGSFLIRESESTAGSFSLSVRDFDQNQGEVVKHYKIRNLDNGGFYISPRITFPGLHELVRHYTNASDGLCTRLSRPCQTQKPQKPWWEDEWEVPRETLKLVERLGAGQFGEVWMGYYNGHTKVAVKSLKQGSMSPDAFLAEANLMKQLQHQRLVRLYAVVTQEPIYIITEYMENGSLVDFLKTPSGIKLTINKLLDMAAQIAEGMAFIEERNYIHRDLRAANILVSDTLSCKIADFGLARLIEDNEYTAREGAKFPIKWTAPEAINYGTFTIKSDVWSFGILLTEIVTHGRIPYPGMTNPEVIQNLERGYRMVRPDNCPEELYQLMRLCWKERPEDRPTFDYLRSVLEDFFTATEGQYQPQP
Chain of Tyrosine-protein kinase ABL1 (Homo sapiens) (P00519 whole entry): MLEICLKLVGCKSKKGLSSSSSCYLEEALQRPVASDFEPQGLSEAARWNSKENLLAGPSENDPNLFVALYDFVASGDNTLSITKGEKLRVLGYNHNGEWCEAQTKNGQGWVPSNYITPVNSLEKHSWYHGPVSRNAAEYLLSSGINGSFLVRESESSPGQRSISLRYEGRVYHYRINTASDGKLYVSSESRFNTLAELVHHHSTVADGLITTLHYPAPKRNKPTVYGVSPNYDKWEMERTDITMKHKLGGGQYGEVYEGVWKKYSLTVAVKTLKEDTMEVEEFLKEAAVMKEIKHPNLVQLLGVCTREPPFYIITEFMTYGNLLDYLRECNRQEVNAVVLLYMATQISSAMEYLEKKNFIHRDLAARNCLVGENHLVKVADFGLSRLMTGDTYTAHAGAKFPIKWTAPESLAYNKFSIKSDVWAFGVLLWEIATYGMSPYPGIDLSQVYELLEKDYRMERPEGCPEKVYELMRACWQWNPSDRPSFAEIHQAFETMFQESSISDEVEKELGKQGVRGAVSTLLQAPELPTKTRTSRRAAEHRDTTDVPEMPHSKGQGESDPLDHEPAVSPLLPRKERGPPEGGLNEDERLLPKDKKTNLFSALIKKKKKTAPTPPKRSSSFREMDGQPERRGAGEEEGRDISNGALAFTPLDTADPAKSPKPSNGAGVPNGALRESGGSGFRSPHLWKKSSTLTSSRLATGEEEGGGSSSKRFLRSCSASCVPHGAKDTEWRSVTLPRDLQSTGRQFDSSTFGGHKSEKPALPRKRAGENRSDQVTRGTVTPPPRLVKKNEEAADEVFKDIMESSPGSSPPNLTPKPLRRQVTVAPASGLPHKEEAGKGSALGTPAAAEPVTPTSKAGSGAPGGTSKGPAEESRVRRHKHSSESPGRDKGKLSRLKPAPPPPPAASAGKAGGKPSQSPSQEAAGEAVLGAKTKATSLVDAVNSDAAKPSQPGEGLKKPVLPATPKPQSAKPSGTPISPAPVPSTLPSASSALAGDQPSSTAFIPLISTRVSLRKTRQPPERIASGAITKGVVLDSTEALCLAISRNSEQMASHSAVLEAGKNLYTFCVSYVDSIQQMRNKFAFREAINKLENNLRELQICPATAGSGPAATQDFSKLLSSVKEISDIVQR
Chain of Tyrosine-protein kinase Yes (Homo sapiens) (P07947 2-543 limits assumed): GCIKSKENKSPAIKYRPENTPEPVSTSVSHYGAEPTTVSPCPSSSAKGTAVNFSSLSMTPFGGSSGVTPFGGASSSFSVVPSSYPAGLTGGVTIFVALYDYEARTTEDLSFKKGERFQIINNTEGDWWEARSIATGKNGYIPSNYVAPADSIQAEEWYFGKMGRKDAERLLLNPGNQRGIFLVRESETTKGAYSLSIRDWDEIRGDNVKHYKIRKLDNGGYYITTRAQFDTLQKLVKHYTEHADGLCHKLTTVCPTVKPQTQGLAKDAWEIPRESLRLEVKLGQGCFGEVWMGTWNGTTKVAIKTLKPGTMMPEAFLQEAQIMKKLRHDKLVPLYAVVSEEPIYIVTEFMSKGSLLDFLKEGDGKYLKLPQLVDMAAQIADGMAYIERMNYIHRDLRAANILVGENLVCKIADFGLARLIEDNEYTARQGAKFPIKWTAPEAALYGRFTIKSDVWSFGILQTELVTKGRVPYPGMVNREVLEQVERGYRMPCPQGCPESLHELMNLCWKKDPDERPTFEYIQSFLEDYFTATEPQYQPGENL
Chain of Vascular endothelial growth factor receptor 2 (Homo sapiens) (P35968 whole entry): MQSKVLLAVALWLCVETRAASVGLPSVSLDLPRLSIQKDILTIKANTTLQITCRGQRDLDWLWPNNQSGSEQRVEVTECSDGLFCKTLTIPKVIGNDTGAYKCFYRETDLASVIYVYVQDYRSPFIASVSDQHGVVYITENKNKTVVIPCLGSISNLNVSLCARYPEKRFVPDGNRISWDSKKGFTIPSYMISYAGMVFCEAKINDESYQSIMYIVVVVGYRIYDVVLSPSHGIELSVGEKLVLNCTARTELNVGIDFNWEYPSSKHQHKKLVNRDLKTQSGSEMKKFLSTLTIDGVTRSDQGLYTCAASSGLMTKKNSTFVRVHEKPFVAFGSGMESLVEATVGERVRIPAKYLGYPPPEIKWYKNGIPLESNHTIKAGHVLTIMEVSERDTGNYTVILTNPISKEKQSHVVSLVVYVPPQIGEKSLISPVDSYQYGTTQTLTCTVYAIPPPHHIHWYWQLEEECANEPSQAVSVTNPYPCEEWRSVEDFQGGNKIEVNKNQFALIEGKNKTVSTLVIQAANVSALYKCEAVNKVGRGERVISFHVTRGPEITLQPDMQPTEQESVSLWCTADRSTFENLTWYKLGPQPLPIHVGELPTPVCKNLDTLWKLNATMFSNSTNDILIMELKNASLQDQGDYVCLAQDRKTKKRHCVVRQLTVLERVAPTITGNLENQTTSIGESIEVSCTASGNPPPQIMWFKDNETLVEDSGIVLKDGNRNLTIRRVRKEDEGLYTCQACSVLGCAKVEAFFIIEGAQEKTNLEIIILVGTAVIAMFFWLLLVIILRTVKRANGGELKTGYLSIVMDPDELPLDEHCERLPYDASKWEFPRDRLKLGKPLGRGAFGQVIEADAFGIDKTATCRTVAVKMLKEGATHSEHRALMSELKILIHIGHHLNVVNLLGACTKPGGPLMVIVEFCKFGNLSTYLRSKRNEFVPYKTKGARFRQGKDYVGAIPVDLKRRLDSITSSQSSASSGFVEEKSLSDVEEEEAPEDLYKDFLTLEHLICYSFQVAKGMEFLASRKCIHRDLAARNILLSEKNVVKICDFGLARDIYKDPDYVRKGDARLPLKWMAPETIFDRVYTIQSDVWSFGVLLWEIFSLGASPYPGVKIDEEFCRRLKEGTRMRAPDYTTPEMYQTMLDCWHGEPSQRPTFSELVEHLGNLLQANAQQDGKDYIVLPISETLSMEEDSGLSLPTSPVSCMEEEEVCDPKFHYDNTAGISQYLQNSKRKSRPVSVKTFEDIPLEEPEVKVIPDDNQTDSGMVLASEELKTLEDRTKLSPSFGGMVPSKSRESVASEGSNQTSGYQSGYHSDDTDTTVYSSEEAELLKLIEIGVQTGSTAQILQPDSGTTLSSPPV
Chain of RAF proto-oncogene serine/threonine-protein kinase (Homo sapiens), P04049 [Y340D,Y341D] (P04049 whole entry Y340D/Y341D): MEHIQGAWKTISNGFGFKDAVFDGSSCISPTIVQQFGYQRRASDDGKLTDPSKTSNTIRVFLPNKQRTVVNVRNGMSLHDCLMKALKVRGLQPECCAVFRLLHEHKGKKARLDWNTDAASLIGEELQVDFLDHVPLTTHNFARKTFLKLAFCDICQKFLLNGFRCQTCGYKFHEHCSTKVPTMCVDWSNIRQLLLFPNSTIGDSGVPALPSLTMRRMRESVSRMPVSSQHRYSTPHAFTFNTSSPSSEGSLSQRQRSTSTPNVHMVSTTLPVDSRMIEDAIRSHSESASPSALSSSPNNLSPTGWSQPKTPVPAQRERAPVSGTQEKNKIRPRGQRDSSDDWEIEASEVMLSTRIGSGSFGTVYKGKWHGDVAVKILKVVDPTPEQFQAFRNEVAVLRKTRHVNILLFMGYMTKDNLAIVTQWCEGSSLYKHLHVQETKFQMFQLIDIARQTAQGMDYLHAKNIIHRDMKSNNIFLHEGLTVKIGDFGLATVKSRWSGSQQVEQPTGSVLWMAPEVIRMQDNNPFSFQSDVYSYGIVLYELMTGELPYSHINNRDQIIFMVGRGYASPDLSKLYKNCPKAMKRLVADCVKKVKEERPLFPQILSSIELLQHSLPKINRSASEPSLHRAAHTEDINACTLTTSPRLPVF
Chain of Casein kinase I isoform alpha (Homo sapiens) (P48729 2-337 limits assumed): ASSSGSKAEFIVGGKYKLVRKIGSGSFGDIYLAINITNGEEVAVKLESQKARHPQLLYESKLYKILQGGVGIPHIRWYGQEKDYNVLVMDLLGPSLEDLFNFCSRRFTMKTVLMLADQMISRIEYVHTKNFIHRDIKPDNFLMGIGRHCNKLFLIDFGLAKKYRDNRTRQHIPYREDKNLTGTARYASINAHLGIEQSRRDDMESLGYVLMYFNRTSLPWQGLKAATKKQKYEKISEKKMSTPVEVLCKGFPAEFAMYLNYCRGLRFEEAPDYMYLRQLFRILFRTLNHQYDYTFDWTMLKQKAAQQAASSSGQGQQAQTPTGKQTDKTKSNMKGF

solubility [1] [µM] | pIC50 [7] | pKi [15] | logD [18] | SMILES | other results
< 1 | 7.04 | 9.15 | 3 | CN(C)Cc1ccc([C@H]2C[C@@H]2C(=O)Nc2nc3ccc(-c4cn[nH]c4)cc3s2)cc1 | pKi [2]: 7.26; bioavailability [3]: 35%; inhibition [4]: > 50%; half-life [5]: 3 h; inhibition [6]: > 50%; half-life [8]: 3.4 h; inhibition [9]: > 50%; AUC(0-t) [10]: 4.8 µM·h; inhibition [11]: > 50%; AUC(0-t) [12]: 2.8 µM·h; inhibition [13]: > 50%; inhibition [14]: > 50%; Vd [16]: 3.2 L/kg; inhibition [17]: > 50%; clearance [19]: 12 mL/min/kg; inhibition [20]: > 50%
< 1 | – | – | 4.4 | COc1ccc(C2CC2C(=O)Nc2nc3ccc(-c4cn[nH]c4)cc3s2)cc1 (racemic) | –
< 1 | – | – | 4.4 | COc1ccc([C@H]2C[C@@H]2C(=O)Nc2nc3ccc(-c4cn[nH]c4)cc3s2)cc1 | –
< 1 | 7.05 | 9.22 | 3 | CN(C)Cc1ccc(C2CC2C(=O)Nc2nc3ccc(-c4cn[nH]c4)cc3s2)cc1 (racemic) | pKi [2]: 7.34

Continued, molecule first:

SMILES | solubility [1] [µM] | pIC50 [7] | pKi [15] | logD [18] | other results
COc1ccc2nc(NC(=O)[C@H]3C[C@@H]3c3ccccc3)sc2c1 (racemic) | < 2 | – | – | – | –
COc1ccc([C@H]2C[C@@H]2C(=O)Nc2nc3ccc(OC)cc3s2)cc1 (racemic) | 11 (≈ 3.9 µg/mL) | – | – | – | –
CN(C)Cc1ccc([C@H]2C[C@@H]2C(=O)Nc2nc3ccc(-c4cccnc4)cc3s2)cc1 (racemic) | < 1 | – | – | 2.7 | –
COc1ccc([C@H]2C[C@@H]2C(=O)Nc2nc3ccc(-c4cncc(CO)c4)cc3s2)cc1 (racemic) | – | < 4.70 | 8.28 | – | inhibition [21]: > 50%; inhibition [22]: > 50%; inhibition [23]: > 50%
CN(C)Cc1cccc([C@H]2C[C@@H]2C(=O)Nc2nc3ccc(-c4cn[nH]c4)cc3s2)c1 (racemic) | 11 (≈ 4.59 µg/mL) | – | – | 2.8 | –
CCN(CC)Cc1cc([C@H]2C[C@@H]2C(=O)Nc2nc3ccc(-c4cn[nH]c4)cc3s2)ccc1OC | 180 (≈ 85.6 µg/mL) | – | – | 2.6 | –
